According to patent publication US11135192B2, “Inhibitors for treating diseases characterized by atrial enlargement or remodeling” (Novartis AG, priority 2012, dated 2021):

Legend:
[1] = tested on: patients with heart failure with preserved ejection fraction; assay: Plasma NT-proBNP in the 37-week randomized, double-blind study of LCZ696 compared to valsartan; type: in vivo, human; settings: for NT-proBNP (pg/ml) at 12 weeks: 12 weeks / NT-proBNP (pg/ml) at 36 weeks: 36 weeks / NT-proBNP (pg/ml) at 12 weeks: Baseline / NT-proBNP (pg/ml) at 36 weeks: Baseline: geometric mean; for NT-proBNP (pg/ml) at 12 weeks: 12 weeks: after 12 weeks of treatment, target LCZ696 200 mg or valsartan 160 mg twice daily; for NT-proBNP (pg/ml) at 36 weeks: 36 weeks: after 36 weeks of treatment; for NT-proBNP (pg/ml) at 12 weeks: Baseline: baseline of patients analysed at 12 weeks; for NT-proBNP (pg/ml) at 36 weeks: Baseline: baseline of patients analysed at 36 weeks
Text: Men and women aged 40 years or older with a left ventricular ejection fraction of 45% or above, and a documented history of heart failure with associated signs or symptoms (dyspnea on exertion, orthopnea, paroxysmal dyspnea, and peripheral edema) are eligible. Patients are required to have an NT-proBNP>400 pg/mL at screening, be on diuretic therapy, and have a systolic blood pressure less than 140 mm Hg, or 160 mm Hg or less if on three or more blood pressure medications at randomization. Additional inclusion criteria include an estimated glomerular filtration rate (eGFR) of at least 30 ml/min/1.73 m^2 at screening (calculated by the Modification of Diet in Renal Disease formula) and a potassium of no more than 5.2 mmol/L.
(§1) The primary study endpoint is the change from baseline in NT-proBNP assessed at 12 weeks, and is analyzed using the last observation after baseline carried forward. Secondary endpoints include changes in echocardiography measures (left ventricular volumes and ejection fraction, left atrial volume, measures of diastolic function), change in blood pressure, as well as change in New York Heart Association Class (NYHA) clinical composite assessment and quality of life (Kansas City Cardiomyopathy Questionnaire).

[2] = tested on: patients with heart failure with preserved ejection fraction; assay: Blood pressure change in the same HF-PEF study; type: in vivo, human; settings: mean (SD)
Description: as §1
(§2) Echocardiography studies are performed at screening, randomization, at week 12, and week 36 or at end of study or early termination visits. Echocardiograms performed at screening are evaluated by local readers for qualifying information. All other echocardiograms are only performed in patients meeting NT-proBNP entry criterion and are evaluated centrally. For assessment of global ventricular size and function, left ventricular end-diastolic and end-systolic volumes are obtained utilizing the Simpson's rule method and left ventricular ejection fraction is derived in the usual fashion. Maximal left atrial dimension is measured in the parasternal long-axis view, and left atrial volume is assessed with the Simpson's rule method and indexed to body surface area. Measurements are made in triplicate in accordance with the recommendations of the American Society of Echocardiography. Blood pressure and heart rate are measured at all study visits with a calibrated standard sphygmomanometer and appropriate size cuff. The use of concomitant medication is recorded at each study visit.

[3] = tested on: patients with heart failure with preserved ejection fraction; assay: Echocardiography (left atrial and left ventricular measures) in the same HF-PEF study; type: in vivo, human
Description: as §1, §2

[4] = tested on: patients with heart failure with preserved ejection fraction
Description: as §1
The clinical composite assessment is based on a composite of the NYHA functional classification, patient global assessment and major adverse clinical events. […] Patients are determined to be worse if at the endpoint visit they experienced a major adverse cardiac event during the double blind treatment or reported worsening of their NYHA class or patient global assessment. Patients are considered unchanged if they are neither improved nor worsened.

[5] = tested on: patients with heart failure with preserved ejection fraction; assay: Safety and tolerability (adverse events, target dose achieved) in the same HF-PEF study
[6] = at 36 weeks, no unit printed in b206 (mm Hg)

| Structure (SMILES) | NT-proBNP (pg/ml) at 12 weeks: 12 weeks [1] [pg/mL] | NT-proBNP (pg/ml) at 36 weeks: 36 weeks [1] [pg/mL] | NT-proBNP (pg/ml) at 12 weeks: Baseline [1] [pg/mL] | NT-proBNP (pg/ml) at 36 weeks: Baseline [1] [pg/mL] | diastolic blood pressure reduction ([2]; after 12 weeks of treatment) | systolic blood pressure reduction ([2]; after 12 weeks of treatment) | diastolic blood pressure reduction [2, 6] | systolic blood pressure reduction [2, 6] | LA Volume, Δ from Baseline ([3]; at 36 weeks) [mL] | LA dimension, Δ from Baseline ([3]; at 36 weeks) [cm] | Relative wall thickness, Δ from Baseline ([3]; at 36 weeks) | LA Volume, Baseline ([3]; baseline) [mL] | LA dimension, Baseline ([3]; baseline) [cm] | further results |
| --- | --- | --- | --- | --- | --- | --- | --- | --- | --- | --- | --- | --- | --- | --- |
| CCCCC(=O)N(Cc1ccc(-c2ccccc2-c2nnn[n-]2)cc1)C(C(=O)[O-])C(C)C.CCCCC(=O)N(Cc1ccc(-c2ccccc2-c2nnn[n-]2)cc1)C(C(=O)[O-])C(C)C.CCOC(=O)C(C)CC(Cc1ccc(-c2ccccc2)cc1)NC(=O)CCC(=O)[O-].CCOC(=O)C(C)CC(Cc1ccc(-c2ccccc2)cc1)NC(=O)CCC(=O)[O-].O.O.O.O.O.[Na+].[Na+].[Na+].[Na+].[Na+].[Na+] [LCZ696, trisodium [3-((1S,3R)-1-biphenyl-4-ylmethyl-3-ethoxycarbonyl-1-butylcarbamoyl) propionate-(S)-3′-methyl-2′-(pentanoyl(2″-(tetrazol-5-ylate)biphenyl-4′-ylmethyl)amino)butyrate]hemipentahydrate] | 605 | 496 | 783 | 763 | 4.9 (10) mm Hg | 9.3 (SD 14) mm Hg | 5.1 (10.8) | 7.5 (15) | -4.61 | −0.15 | +0.01% | 65.26 | 3.68 | reduction in NT-proBNP in patients with diabetes compared with patients without diabetes ([1]; 12 weeks, prespecified subgroup, interaction p=0.02): differentially greater reduction; reduction in NT-proBNP versus valsartan after adjustment for the change in blood pressure ([1]; 12 weeks, p=0.01): greater reduction; NT-proBNP versus baseline ([1]; 36 weeks): remained reduced from baseline; early reduction in NT-proBNP compared with the valsartan group ([1]; after 4 weeks of treatment, p=0.083): not significant; Left atrial volume (result in words) ([3]; after 36 weeks of treatment, p=0.003): reduced significantly; left atrial dimension (result in words) ([3]; after 36 weeks of treatment, p=0.034): reduced significantly; NYHA class improvement between groups ([4]; at 12 weeks, p=0.11): did not differ significantly; NYHA class compared with the valsartan group ([4]; at 36 weeks, p=0.05): improvement |
| CCCCC(=O)N(Cc1ccc(-c2ccccc2-c2nnn[nH]2)cc1)[C@H](C(=O)O)C(C)C [Valsartan, (S)—N-valeryl-N-{[2′-(1H-tetrazole-5-yl)-biphenyl-4-yl]-methyl}-valine, reference compound] | 835 | 607 | 862 | 822 | 2.1 (11) mm Hg | 2.9 (17) mm Hg | 0.34 (11.5) | 1.5 (18) | 0.37 | −0.08 | +0.01% | 68.28 | 3.73 | LA Volume Index, Δ from Baseline ([3]; at 36 weeks): 0.31 ml/m^2; LV mass index, Δ from Baseline ([3]; at 36 weeks): −1.93 g/m^2; LA Volume Index, Baseline ([3]; baseline): 36.80 ml/m^2; LV mass index, Baseline ([3]; baseline): 79.45 g/m^2; deaths ([5]; among the serious adverse events): two; adverse event atrial fibrillation, number of patients ([5]; during the trial): 8 patients; adverse event atrial fibrillation, percent of patients ([5]; during the trial): 5.3%; one or more serious adverse events, number of patients ([5]; during the trial): 30 patients; one or more serious adverse events, percent of patients ([5]; during the trial): 20%; Angio-oedema, patients ([5]; the LCZ696 patient did not need admission to hospital): no patients |
